Values joined by “and” are separate entries in the source; they are usually repeats but may differ in a detail not shown here. Equal entries are not always repeated. Square brackets hold non-standard residues; d marks the D form. Peptide text beside a SMILES is read from it.
How the values were obtained:
adult female Balb/c mice [1] = experiment: LPS-induced lethality, oral (gavage) dosing; format: in vivo; conditions: control mice 0%
Procedure: The LPS-induced lethality studies were performed based on information reported by Rivier et al., supra, 1989. Adult female Balb/c mice were provided food and water ad libitum. Mice were administered 150 μg or 300 μg EX-2, EX-3, EX-5 or EX-6 in 100 μl saline by gavage every 4 hr for 40 hr (total doses of 1.65 mg and 3.3 mg, respectively). Control mice received 100 μl saline, alone. Immediately following the first dose of cytokines restraining agent or saline, 0.6 mg LPS in 0.2 ml saline was administered by IP injection.

TNF-α [2] = experiment: LPS-induced TNF-α levels, oral (gavage) dosing; format: in vivo, mice
Procedure: The ability of orally administered cytokine restraining agents to reduce LPS-induced TNF-α levels also was examined. Balb/c female mice (20 g) were administered 150 μg or 300 μg EX-2, EX-3, EX-5 or EX-6 in 100 μl saline by gavage. Control mice received 100 μl saline, alone. One mn later, 0.1 mg LPS was administered by IP injection. Samples were collected and TNF-α levels were determined as described in Example III, above.
The mean TNF-α levels in the mice from each group (n=9-20) was determined and the percent reduction in TNF-α levels was calculated.

female Balb/c mice = experiment: Arachidonic acid-induced ear swelling; format: in vivo; conditions: 100 μg/mouse IP 30 min prior to AA; 60 min after AA application
Procedure: Experiments were performed using female Balb/c mice weighing 18-23 grams. Saline or 100 μg EX-2 or EX-3 was administered IP, 30 min prior to topical application of arachidonic acid (AA). A 10 μl pipet was used to apply 10 μl AA solution (100 mg/ml ethanol; Calbiochem-Novabiochem; San Diego Calif.) to the inner and outer surfaces of the right ear of each mouse. Ten μl ethanol, alone, was applied to the inner and outer surface of the left ear of each mouse.
Ear thickness was measured with a hand-held spring loaded caliper immediately before and 60 min after AA application. Increase in ear thickness was calculated by subtracting the change observed in the control ear from the change observed in AA-treated ear. The value for each group (saline and control) is the average of the swelling observed in the individual mice in each group. The percent reduction of swelling is based on the swelling observed in the saline control group.

adult female Balb/c mice [3] = experiment: Carageenan-induced paw swelling; format: in vivo; conditions: 1 μg/mouse; measured at the 2 hr time point
Procedure: Carageenan-induced paw swelling was induced using a modification of the methods of Hiltz and Lipton, Peptides 11:979-982 (1990); Vinegar et al., Fed. Proc. 46:118-1.26 (1987); and Vinegar et al., J. Pharmacol. Expt. Therap. 166:96-103 (1969), each of which is incorporated herein by reference. Briefly, adult female Balb/c mice were anesthetized by IP injection of 7 mg/kg ketoamine and 0.6 mg/kg rompun. Foot pad thickness was measured using a spring loaded micrometer (Swiss Precision Instruments). Foot pad thickness was expressed in units of 1/100 inch. After baseline measurements were obtained, mice were injected into a hind foot pad with either 0.2 ml physiologic saline (control) or varying doses of EX-2 or EX-3 in 0.2 ml saline (treated). The first injection was followed immediately by injection of 0.02 ml of 0.15% κ-carageenan (Sigma Chemical Co.; St. Louis, Mo.).
Hind foot pad thickness was measured hourly for six hr, the change in thickness was determined and the percent reduction in swelling due to treatment with EX-2 was calculated.

adult female Balb/c mice [4] = experiment: LPS-induced lethality (IP dosing); format: in vivo; conditions: 11 × 300 μg/mouse IP (3.3 mg), every 4 hr; 0.6 mg LPS; vs control mice
Procedure: These experiments were performed based on information reported by Rivier et al., Endocrinology 125:2800-2805 (1989), which is incorporated herein by reference. Adult female Balb/c mice were provided food and water ad libitum. Mice were injected IP every four hr for 40 hr with 30 to 300 μg EX-2, EX-3 or EX-4 in 0.2 ml saline (treated group) or with 0.2 ml saline, alone (control group) (10 mice per group). Immediately following the first injection, 0.6 mg LPS endotoxin in 0.2 ml saline was administered to each mouse. Following LPS injection, EX-2 or saline was administered to the treated mice or the control mice, respectively, every 4 hr for 36 hr.

TNF-α [5] = experiment: Reduction of LPS-induced TNF levels in mice (IP dosing); format: in vivo; conditions: 150 μg/mouse IP before LPS 5 mg/kg IP; vs untreated control mice
Procedure: Balb/c female mice weighing approximately 20 g were placed into two groups, a control group and a treated group. Five mg/kg of LPS in 0.9% saline was administered by intraperitoneal (IP) injection into the control mice. Mice in the treated group were first injected IP with 30 μg EX-2 or 150 μg EX-3 in saline, then, one mn after EX-2 or EX-3 was administered, the mice received LPS as described for the control group.
Blood samples were collected from the orbital sinus of treated and control mice at various times up to four hr after LPS was administered. The plasma was separated by centrifugation at 3000×g for 5 min, then diluted with four volumes of 1× phosphate buffer saline (pH 7.4) containing 1% bovine serum albumin. A 100 μl sample of serum was assayed by ELISA for TNF-α (Genzyme; Cambridge Mass.).
The mean (±SEM) TNF-α level in six mice from each group was determined and the percent reduction in TNF levels was calculated.

Male Shelton rabbits = experiment: Morphine-induced respiratory depression; format: in vivo; conditions: 10 + 20 + 20 μg/kg/rabbit iv; at end of experiment (80 min)
Procedure: Male Shelton rabbits (3-4 kg) were restrained and fitted around the thorax, just behind the front limbs, with a respiration transducer (Model F-RCT; Grass Instruments; Quincy Mass.). The transducer was connected to a grass polygraph via an EKG cable. An intravenous line was established for drug administration by cannulating the marginal ear vein using a 25G butterfly needle.
Rabbit breathing was allowed to stabilize, then. morphine sulfate (2 mg/kg in 0.5 ml saline) was administered by intravenous (iv) injection and respiratory rate and depth were monitored for 10 min. A second dose of morphine was administered, then, after 10 min, EX-2 or EX-3 (10 μg/kg in 0.5 ml saline) was administered, iv, and rabbits were monitored for 20 min. Two additional doses of EX-2 or EX-3 (20 μg/kg in 1.0 ml saline) were administered at 20 min intervals, i.e., 40 min and 60 min after the first morphine injection.
Results were calculated as the percent change from baseline values and are expressed as the difference of the mean value of the treated group minus the mean value of the control group at the end of the experiment (80 min).

[6] = 300 μg by gavage before 0.1 mg LPS IP

## CC(=O)N[C@@H](Cc1c[nH]cn1)C(=O)N[C@H](Cc1ccccc1)C(=O)N[C@@H](CCCNC(=N)N)C(=O)N[C@H](Cc1c[nH]c2ccccc12)C(=O)NCC(N)=O [EX-5, Ac-His-(D)Phe-Arg-(D)Trp-Gly-NH2] (Ac-H[dF]R[dW]G-NH2)
Adult female Balb/c mice [1]; 3.3 mg total (300 μg every 4 hr for 40 hr)
  increase in survival (LPS-induced lethality): 63% and 44%
TNF-α [2]; [6]
  percent reduction in TNF-α levels: 44%

## CC(=O)N[C@@H](Cc1c[nH]cn1)C(=O)N[C@H](Cc1ccccc1)C(=O)N[C@@H](CCCNC(=N)N)C(=O)N[C@H](Cc1c[nH]c2ccccc12)C(N)=O [EX-6, Ac-His-(D)Phe-Arg-(D)Trp-NH2]
Adult female Balb/c mice [1]; 1.65 mg total (150 μg every 4 hr for 40 hr)
  increase in survival (LPS-induced lethality): 68%

## CC(=O)N[C@H](C(=O)N[C@@H](CCC(N)=O)C(=O)N[C@@H](Cc1c[nH]cn1)C(=O)N[C@H](Cc1ccccc1)C(=O)N[C@@H](CCCNC(=N)N)C(=O)N[C@H](Cc1c[nH]c2ccccc12)C(=O)NCC(N)=O)C1CCCCC1 [EX-3, Ac-(cyclohexyl)Gly-Gln-His-(D)Phe-Arg-(D)Trp-Gly-NH2]
Female Balb/c mice
  Reduction in arachidonic acid-induced Ear Swelling: 62%
Adult female Balb/c mice [3]
  Reduction in Carageenan-induced Paw Swelling: 49%
Adult female Balb/c mice [4]
  Inhibition of LPS-induced Lethality (increase in survival): 86%
TNF-α [2]; 150 μg by gavage before 0.1 mg LPS IP
  percent reduction in TNF-α levels: 49%
TNF-α [2]; [6]
  percent reduction in TNF-α levels: 40%
TNF-α [5]
  Reduction in TNF levels: 56%
Male Shelton rabbits
  Reduction in Morphine-induced Respiratory Depression: 65%

## CC(=O)N[C@H](Cc1ccccc1)C(=O)N[C@@H](CCCNC(=N)N)C(=O)N[C@H](Cc1c[nH]c2ccccc12)C(N)=O [EX-4, Ac-(D)Phe-Arg-(D)Trp-NH2]
Adult female Balb/c mice [4]
  Inhibition of LPS-induced Lethality (increase in survival): 75%
TNF-α [5]
  Reduction in TNF levels: 53%

Reference: patent publication US5760001A, “Cytokine restraining agents and methods of use in pathologies and conditions associated with altered cytokine levels” (Trega Biosciences, Inc., priority 1995, dated 1998)
